In ChEMBL document CHEMBL5625248, “Identification of unique indolylcyanoethylenyl sulfonylanilines as novel structural scaffolds of potential antibacterial agents” (Eur J Med Chem, 2023) one finds MIC data, which are given here for 9 molecules.

Structures are written as SMILES. Converted amounts (≈) assume the structure as drawn.

Assay type in all cases: functional
The subject of assay [1] is Staphylococcus aureus. Nature of the assay: Antibacterial activity against methicilin-resistant Staphylococcus aureus N315 assessed as inhibition of bacterial growth incubated for 18 hrs by two fold broth microdilution assay. On the technique in general: Dilution methods test growth across graded concentrations, often in twofold steps.
In assay [2] the test system is Staphylococcus aureus. Put plainly: Antibacterial activity against Staphylococcus aureus ATCC 29213 assessed as inhibition of bacterial growth incubated for 18 hrs by two fold broth microdilution assay.
The test system of assay [3] is Pseudomonas aeruginosa. Nature of the assay: Antibacterial activity against Pseudomonas aeruginosa ATCC 27853 assessed as inhibition of bacterial growth incubated for 18 hrs by two fold broth microdilution assay.
Assay [4] concerns Staphylococcus aureus. Put plainly: Antibacterial activity against Staphylococcus aureus ATCC 25923 assessed as inhibition of bacterial growth incubated for 18 hrs by two fold broth microdilution assay.
Assay [5] concerns Pseudomonas aeruginosa. Nature of the assay: Antibacterial activity against Pseudomonas aeruginosa assessed as inhibition of bacterial growth incubated for 18 hrs by two fold broth microdilution assay.
The test system of assay [6] is Escherichia coli. Nature of the assay: Antibacterial activity against Escherichia coli ATCC 25922 assessed as inhibition of bacterial growth incubated for 18 hrs by two fold broth microdilution assay.
Assay [7] relates to Acinetobacter baumannii. Put plainly: Antibacterial activity against Acinetobacter baumannii assessed as inhibition of bacterial growth incubated for 18 hrs by two fold broth microdilution assay.
The test system of assay [8] is Staphylococcus aureus. Put plainly: Antibacterial activity against Staphylococcus aureus assessed as inhibition of bacterial growth incubated for 18 hrs by two fold broth microdilution assay.
The subject of assay [9] is Escherichia coli. Nature of the assay: Antibacterial activity against Escherichia coli assessed as inhibition of bacterial growth incubated for 18 hrs by two fold broth microdilution assay.
The test system of assay [10] is Enterococcus faecalis. Put plainly: Antibacterial activity against Enterococcus faecalis assessed as inhibition of bacterial growth incubated for 18 hrs by two fold broth microdilution assay.
Assay [11] deals with Klebsiella pneumoniae. Nature of the assay: Antibacterial activity against Klebsiella pneumoniae assessed as inhibition of bacterial growth incubated for 18 hrs by two fold broth microdilution assay.

Broadly, the MIC is the lowest concentration that inhibits growth of the organism. Take `CC(=O)Nc1ccc(S(=O)(=O)/C(C#N)=C/c2cn(CC3CCCC3)c3ccccc23)cc1`: the MIC in [1] came out at 128 µg/mL (≈ 286 µM); in assay [2], 16 µg/mL (≈ 35.7 µM); in assay [3], 16 µg/mL (≈ 35.7 µM); in assay [4], 128 µg/mL (≈ 286 µM); in assay [5], 64 µg/mL (≈ 143 µM); in assay [6], 64 µg/mL (≈ 143 µM). Also, the MIC in [7] came to 32 µg/mL (≈ 71.5 µM); in [8], 8 µg/mL (≈ 17.9 µM); in [9] it was 256 µg/mL (≈ 572 µM); in [10] it was 32 µg/mL (≈ 71.5 µM); in assay [11], 4 µg/mL (≈ 8.94 µM).
For the molecule `N#C/C(=C\c1cn(Cc2ccc(Cl)c(Cl)c2)c2ccccc12)S(=O)(=O)c1ccc(N)cc1`, the MIC in assay [1] was 16 µg/mL (≈ 33.2 µM); in assay [2] it was 4 µg/mL (≈ 8.29 µM); in assay [3] it was 64 µg/mL (≈ 133 µM); in assay [4], 16 µg/mL (≈ 33.2 µM); in assay [5], 31 µg/mL (≈ 64.3 µM); in assay [6], 0.5 µg/mL (≈ 1.04 µM). Moreover, the MIC worked out at 4 µg/mL (≈ 8.29 µM) in [7]; 128 µg/mL (≈ 265 µM) in assay [8]; 256 µg/mL (≈ 531 µM) in assay [9]; 128 µg/mL (≈ 265 µM) in [10]; 4 µg/mL (≈ 8.29 µM) in assay [11].
For `N#C/C(=C\c1cn(CCN2CCOCC2)c2ccccc12)S(=O)(=O)c1ccc(N)cc1`, the MIC in assay [1] was determined as 16 µg/mL (≈ 36.7 µM); in assay [2], 64 µg/mL (≈ 147 µM); in [3], 64 µg/mL (≈ 147 µM); in assay [4], 32 µg/mL (≈ 73.3 µM); in [5], 64 µg/mL (≈ 147 µM); in [6], 0.5 µg/mL (≈ 1.15 µM). The MIC in assay [7] is 64 µg/mL (≈ 147 µM); in assay [8], 32 µg/mL (≈ 73.3 µM); in assay [9], 16 µg/mL (≈ 36.7 µM); in assay [10], 256 µg/mL (≈ 586 µM); in assay [11], 128 µg/mL (≈ 293 µM).
As for `N#C/C(=C\c1cn(Cc2ccccc2Cl)c2ccccc12)S(=O)(=O)c1ccc(N)cc1`, the MIC in assay [1] is 256 µg/mL (≈ 571 µM); in assay [2], 2 µg/mL (≈ 4.46 µM); in assay [3], 2 µg/mL (≈ 4.46 µM); in [4] it was 1 µg/mL (≈ 2.23 µM); in assay [5] it was 16 µg/mL (≈ 35.7 µM); in [6] it was 64 µg/mL (≈ 143 µM). The MIC in assay [7] turned out to be 16 µg/mL (≈ 35.7 µM); in assay [8] it was 1 µg/mL (≈ 2.23 µM); in [9], 32 µg/mL (≈ 71.4 µM); in assay [10] it was 16 µg/mL (≈ 35.7 µM); in assay [11] it was 1 µg/mL (≈ 2.23 µM).
Consider `CCCCCCCCn1cc(/C=C(\C#N)S(=O)(=O)c2ccc(NC(C)=O)cc2)c2ccccc21`, for which the MIC in assay [1] was 256 µg/mL (≈ 536 µM); in [2], 16 µg/mL (≈ 33.5 µM); in assay [3], 16 µg/mL (≈ 33.5 µM); in [4] it was 4 µg/mL (≈ 8.37 µM); in assay [5] it was 64 µg/mL (≈ 134 µM); in [6], 32 µg/mL (≈ 67 µM). Also, the MIC in assay [7] amounted to 8 µg/mL (≈ 16.7 µM); in assay [8], 8 µg/mL (≈ 16.7 µM); in assay [9], 256 µg/mL (≈ 536 µM); in [10] it was 16 µg/mL (≈ 33.5 µM); in [11] it was 4 µg/mL (≈ 8.37 µM).
For `CC(=O)Nc1ccc(S(=O)(=O)/C(C#N)=C/c2cn(CC(=O)N(C(C)C)C(C)C)c3ccccc23)cc1`, the MIC in assay [1] is 64 µg/mL (≈ 126 µM); in assay [2], 64 µg/mL (≈ 126 µM); in assay [3] it was 64 µg/mL (≈ 126 µM); in [4], 32 µg/mL (≈ 63.2 µM); in assay [5], 64 µg/mL (≈ 126 µM); in [6], 64 µg/mL (≈ 126 µM). Moreover, the MIC in assay [7] came out at 32 µg/mL (≈ 63.2 µM); in assay [8], 32 µg/mL (≈ 63.2 µM); in [9], 64 µg/mL (≈ 126 µM); in assay [10], 64 µg/mL (≈ 126 µM); in assay [11], 32 µg/mL (≈ 63.2 µM).
Take `CC(=O)Nc1ccc(S(=O)(=O)/C(C#N)=C/c2cn(CC(=O)OC(C)(C)C)c3ccccc23)cc1`: the MIC in assay [1] was determined as 256 µg/mL (≈ 534 µM); in assay [2], 16 µg/mL (≈ 33.4 µM); in assay [3], 128 µg/mL (≈ 267 µM); in assay [4], 128 µg/mL (≈ 267 µM); in assay [5], 128 µg/mL (≈ 267 µM); in assay [6], 256 µg/mL (≈ 534 µM). Moreover, the MIC in [7] turned out to be 128 µg/mL (≈ 267 µM); in [8], 128 µg/mL (≈ 267 µM); in [9] it was 256 µg/mL (≈ 534 µM); in [10], 128 µg/mL (≈ 267 µM); in [11], 128 µg/mL (≈ 267 µM).
Consider `CC(=O)Nc1ccc(S(=O)(=O)/C(C#N)=C/c2cn(Cc3ccc([N+](=O)[O-])cc3)c3ccccc23)cc1`, for which the MIC was found to be 16 µg/mL (≈ 32 µM) in assay [1]; 2 µg/mL (≈ 4 µM) in assay [2]; 256 µg/mL (≈ 511 µM) in assay [3]; 256 µg/mL (≈ 511 µM) in assay [4]; 128 µg/mL (≈ 256 µM) in assay [5]; 64 µg/mL (≈ 128 µM) in [6]. In addition, the MIC in assay [7] came to 64 µg/mL (≈ 128 µM); in assay [8] it was 256 µg/mL (≈ 511 µM); in [9], 256 µg/mL (≈ 511 µM); in assay [10] it was 128 µg/mL (≈ 256 µM); in assay [11], 16 µg/mL (≈ 32 µM).
Take `CCCCn1cc(/C=C(\C#N)S(=O)(=O)c2ccc(NC(C)=O)cc2)c2ccccc21`: the MIC in [1] turned out to be 256 µg/mL (≈ 607 µM); in assay [2], 8 µg/mL (≈ 19 µM); in assay [3], 8 µg/mL (≈ 19 µM); in assay [4] it was 1 µg/mL (≈ 2.37 µM); in assay [5], 4 µg/mL (≈ 9.49 µM); in assay [6] it was 4 µg/mL (≈ 9.49 µM). Besides, the MIC was found to be 1 µg/mL (≈ 2.37 µM) in assay [7]; 2 µg/mL (≈ 4.74 µM) in [8]; 64 µg/mL (≈ 152 µM) in assay [9]; 4 µg/mL (≈ 9.49 µM) in assay [10]; 8 µg/mL (≈ 19 µM) in [11].
